Measured values from article PMC7143535, “Synthesis, Pharmacological and Structural Characterization of Novel Conopressins from Conus miliaris” (Marine Drugs, 2020).
Like-named read-outs stand apart in the source and are kept apart here. Residues, ends and D or L forms follow the SMILES beside them.

Columns and labels:
[1] = target: T1, human oxytocin receptor (hOTR) (Homo sapiens, UniProt P30559); experiment: cell-based; assay type: cell-based
T1 construct: host or cells: COS-1
T1 sequence (P30559 1-389): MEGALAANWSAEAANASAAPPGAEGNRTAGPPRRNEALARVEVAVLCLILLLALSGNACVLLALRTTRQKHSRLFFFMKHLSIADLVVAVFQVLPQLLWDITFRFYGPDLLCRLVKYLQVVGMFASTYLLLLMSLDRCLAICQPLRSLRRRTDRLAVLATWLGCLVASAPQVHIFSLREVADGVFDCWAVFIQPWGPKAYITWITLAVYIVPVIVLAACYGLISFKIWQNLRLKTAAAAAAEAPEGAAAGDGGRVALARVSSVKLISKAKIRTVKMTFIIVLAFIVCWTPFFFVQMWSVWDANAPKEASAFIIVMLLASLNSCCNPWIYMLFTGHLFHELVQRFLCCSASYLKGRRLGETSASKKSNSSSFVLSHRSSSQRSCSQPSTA

[2] = target: T2, human vasopressin-1a receptor (hV1aR) (Homo sapiens, UniProt P37288); experiment: cell-based
T2 construct: host or cells: COS-1

[3] = target: T3, human vasopressin-1b receptor (hV1bR) (Homo sapiens, UniProt P47901); experiment: cell-based; assay type: cell-based
T3 construct: host or cells: COS-1
T3 sequence (P47901 1-424): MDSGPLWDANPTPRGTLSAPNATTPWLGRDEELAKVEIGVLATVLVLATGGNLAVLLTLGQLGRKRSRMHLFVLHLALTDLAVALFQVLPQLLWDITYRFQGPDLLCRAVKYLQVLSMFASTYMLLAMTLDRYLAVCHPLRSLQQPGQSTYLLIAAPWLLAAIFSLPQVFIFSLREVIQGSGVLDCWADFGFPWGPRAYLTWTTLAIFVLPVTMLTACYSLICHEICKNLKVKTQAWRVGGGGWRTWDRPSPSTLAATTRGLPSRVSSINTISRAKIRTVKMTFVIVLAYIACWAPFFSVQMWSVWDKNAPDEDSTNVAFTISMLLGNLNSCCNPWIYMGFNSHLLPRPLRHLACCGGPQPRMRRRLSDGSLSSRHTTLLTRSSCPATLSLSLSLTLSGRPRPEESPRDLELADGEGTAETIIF

[4] = target: T4, human vasopressin2 receptor (hV2R) (Homo sapiens, UniProt P30518); experiment: cell-based
T4 construct: host or cells: COS-1

[5] = target: zebrafish vasopressin1-a1 receptor (ZF V1a1R); assay type: cell-based, zebrafish (Danio rerio)
[6] = target: zebrafish vasopressin1-a2 receptor (ZF V1a2R); assay type: cell-based, zebrafish (Danio rerio)
[7] = test system: zebrafish vasopressin2 receptor (ZF V2R); assay type: cell-based, zebrafish (Danio rerio)
[8] = target: T5, zebrafish oxytocin/isotocin receptor (ZF oxy/isoR) (Danio rerio, UniProt E4W699); experiment: cell-based; assay type: cell-based
T5 construct: host or cells: COS-1
T5 sequence (E4W699 1-388): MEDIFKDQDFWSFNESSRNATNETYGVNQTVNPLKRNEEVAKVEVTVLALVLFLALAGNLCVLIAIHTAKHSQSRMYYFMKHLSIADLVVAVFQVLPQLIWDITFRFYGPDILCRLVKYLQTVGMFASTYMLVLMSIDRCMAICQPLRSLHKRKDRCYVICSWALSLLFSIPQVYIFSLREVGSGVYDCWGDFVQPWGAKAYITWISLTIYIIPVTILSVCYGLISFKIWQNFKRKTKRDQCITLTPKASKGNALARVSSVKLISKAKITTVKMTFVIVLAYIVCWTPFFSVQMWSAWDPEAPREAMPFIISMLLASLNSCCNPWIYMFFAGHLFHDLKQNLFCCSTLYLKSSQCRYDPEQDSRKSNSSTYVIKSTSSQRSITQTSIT

T4 sequence (P30518 whole entry): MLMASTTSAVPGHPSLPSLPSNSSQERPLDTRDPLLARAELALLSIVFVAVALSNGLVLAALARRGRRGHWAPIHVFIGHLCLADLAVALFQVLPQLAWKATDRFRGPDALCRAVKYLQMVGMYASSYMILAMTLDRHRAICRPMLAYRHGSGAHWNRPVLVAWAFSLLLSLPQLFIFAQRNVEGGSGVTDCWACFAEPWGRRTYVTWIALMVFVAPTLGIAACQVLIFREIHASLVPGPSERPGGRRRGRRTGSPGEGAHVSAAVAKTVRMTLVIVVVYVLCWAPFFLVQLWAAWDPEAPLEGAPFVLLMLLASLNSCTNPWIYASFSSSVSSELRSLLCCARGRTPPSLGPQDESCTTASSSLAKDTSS
T2 sequence (P37288 whole entry): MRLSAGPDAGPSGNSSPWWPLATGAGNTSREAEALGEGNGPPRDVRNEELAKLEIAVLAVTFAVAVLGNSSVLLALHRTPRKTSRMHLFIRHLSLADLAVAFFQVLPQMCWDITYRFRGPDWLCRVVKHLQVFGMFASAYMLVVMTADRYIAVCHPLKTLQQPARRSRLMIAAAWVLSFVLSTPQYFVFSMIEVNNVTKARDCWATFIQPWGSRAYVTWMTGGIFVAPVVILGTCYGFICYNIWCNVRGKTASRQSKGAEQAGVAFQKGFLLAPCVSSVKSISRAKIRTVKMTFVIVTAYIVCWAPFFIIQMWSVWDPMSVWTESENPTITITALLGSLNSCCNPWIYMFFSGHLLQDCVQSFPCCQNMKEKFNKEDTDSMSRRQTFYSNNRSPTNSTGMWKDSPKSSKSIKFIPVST

In the case of `CC[C@H](C)[C@@H]1NC(=O)[C@H](Cc2ccc(O)cc2)NC(=O)[C@@H](N)CSSC[C@@H](C(=O)N2CCC[C@H]2C(=O)N[C@@H](CCCNC(=N)N)C(=O)NCC(N)=O)NC(=O)[C@H](CC(N)=O)NC(=O)[C@H](CCC(N)=O)NC1=O` [Vasotocin, vasotocin] (HELM PEPTIDE1{C.Y.I.Q.N.C.P.R.G.[am]}$PEPTIDE1,PEPTIDE1,1:R3-6:R3$$$V2.0; N-terminus assumed), the EC50 [1] is reported as 1.62 nM, the “Selectivity hOTR” value [1] is reported as “hV2R (x28945.5) > ZF V1a1R (x38.8) > ZF oxy (x18.7) > hOTR(x9.8) > ZF V1a2R (x5.7) > hV1bR (x3.7) > ZF V2R (x3.1) > hV1aR” and the EC50 [2] is reported as 15.9 nM. For the same molecule, the EC50 [3] was 4.26 nM, the “Selectivity hV1bR” value [3] was “hV2R (x28945.5) > ZF V1a1R (x38.8) > ZF oxy (x18.7) > hOTR(x9.8) > ZF V1a2R (x5.7) > hV1bR (x3.7) > ZF V2R (x3.1) > hV1aR” and the EC50 [4] was 0.5 nM. For the same molecule, the “Selectivity hV2R” value [4] was “hV2R (x28945.5) > ZF V1a1R (x38.8) > ZF oxy (x18.7) > hOTR(x9.8) > ZF V1a2R (x5.7) > hV1bR (x3.7) > ZF V2R (x3.1) > hV1aR”, the “fold more potent on hV2R than on ZF V2R” value [4] was ~10,000 fold and the EC50 [5] was 0.41 nM. The “Selectivity ZF V1a1R” value [5] was “hV2R (x28945.5) > ZF V1a1R (x38.8) > ZF oxy (x18.7) > hOTR(x9.8) > ZF V1a2R (x5.7) > hV1bR (x3.7) > ZF V2R (x3.1) > hV1aR”, the EC50 [6] was 2.77 nM and the “Selectivity ZF V1a2R” value [6] was “hV2R (x28945.5) > ZF V1a1R (x38.8) > ZF oxy (x18.7) > hOTR(x9.8) > ZF V1a2R (x5.7) > hV1bR (x3.7) > ZF V2R (x3.1) > hV1aR”. For the same molecule, the “Selectivity ZF V2R” value [7] was “hV2R (x28945.5) > ZF V1a1R (x38.8) > ZF oxy (x18.7) > hOTR(x9.8) > ZF V1a2R (x5.7) > hV1bR (x3.7) > ZF V2R (x3.1) > hV1aR”, the EC50 ([7]; read-out: EC50 / affinity at ZF V2R) was 5000 nM and the EC50 ([7]; read-out: Mean EC50 ZF V2R) was 5.07 nM. The EC50 [8] was 0.85 nM and the “Selectivity ZF oxy” value [8] was “hV2R (x28945.5) > ZF V1a1R (x38.8) > ZF oxy (x18.7) > hOTR(x9.8) > ZF V1a2R (x5.7) > hV1bR (x3.7) > ZF V2R (x3.1) > hV1aR”.
